Experimental data taken from US9801922B2, “Compositions and methods of treating cancer” (UNIVERSITY OF IOWA RESEARCH FOUNDATION, priority 2011, dated 2017).

What was measured:
[1] = system: MDA-MB231 cells; assay: MitoSOX red oxidation, MDA-MB231; assay type: cell-based, human
Method: FIGS. 4A-4C: MitoSOX oxidation in SUM159, MDA-MB231 and HMECs cells treated with BSO, DTPP and AUR. Asynchronously growing cultures of SUM159 (Panel A) MDA-MB231 (Panel B) and HMECs (Panel C) were plated and treated as described in FIG. 1. Monolayer cultures were harvested and trypsinized, washed once with PBS and labeled 20 minutes with 2 μM MitoSOX (in 0.1% DMSO) in PBS containing 5 mM pyruvate at 37° C. Each sample was then analyzed for the Mean fluorescence Intensity (MFI) of 10,000 cells by flow cytometry. Samples were assayed in triplicate; mean±1 SD of 1 experiment containing 3 treatment dishes per group (n=3), * or ^p<0.001 as compared to Control.
MitoSOX™ red oxidation to estimate mitochondrial superoxide production: To determine if DTPP can alter steady-state levels of superoxide originating from mitochondria in SUM159, MDA-MB231 and HMEC cells, the cationic superoxide sensitive dye, MitoSOX™red (Molecular Probes), was used. Cells were plated and treated as described earlier in clonogenic survival experiment. After the exposure, cells were trypsinized and washed with 5 mM/L pyruvate containing PBS once then labeled with MitoSOX™red (2 μM, in 0.1% DMSO, 20 minutes) at 37° C. After labeling, cells were kept on ice. Samples were analyzed using a FACScan flowcytometer (Becton Dickinson Immunocytometry System, INC., Mountain View, Calif.) (excitation 488 nm, emission 585 nm band-pass filter). The mean fluorescence intensity of 10,000 cells was analyzed in each sample and corrected for autofluorescence from unlabeled cells. The MFI data was normalized to control levels.

[2] = system: SUM159 human breast cancer cells; assay: ALDEFLUOR assay of ALDH positive (cancer stem) cell fraction; assay type: cell-based; details: for percentage of ALDH positive cell population: 100 μM BSO, 1 μM DTPP 24 h, 500 nM AUR 15 min, control 2.61%; for ALDH positive cell population decreased to (relative to control): single agent
Method: FIG. 16: The fraction of Aldehyde dehydrogenase activity positive (ALDH+) cancer cells (also known as early progenitor cancer stem cells) is decreased in SUM159 human breast cancer cells treated with inhibitors of glutathione and thioredoxin metabolism (BSO, AUR, respectively) combined with DTPP. Asynchronously growing cultures of SUM159 were incubated with 100 μM BSO and/or 1 μM DTPP for 24 hours in HMEC media. 500 nM AUR were added into cell culture 15 minutes before the assay. Monolayer cultures were harvested and trypsinized, washed once with PBS and labeled 40 minutes in PBS at 37° C. with BAAA (1 μmol/1 per 1 x 10^6 cells). The negative controls were also added with 50mmol/L diethylaminobenzaldehyde (DEAB). After labeling, Hochest dye for viability assay was added and then kept on ice. Each sample was then analyzed for the ALDH positive cell percentage of 100,000 cells by flow cytometry. Errors represent Mean ±1 SD of 3 samples from two separate experiments […], * p <0.05 as compared to Control.
Estimation of Cancer stem cell fractions using the Aldefluor assay: The ALDEFLUOR kit (StemCell Technologies, Durham, N.C., USA) was used to determine the subpopulation of cancer cells with a high ALDH enzymatic activity. SUM159 human breast cancer cells were plated and treated as described earlier in clonogenic survival experiment. After the exposure, the cells were trypsinized and washed with PBS once then re-suspended in ALDEFLUOR assay buffer containing ALDH substrate (BAAA, 1 μmol/l per 1×10^6 cells) and incubated for 40 minutes at 37° C. As negative control, for each sample of cells an aliquot was treated with 50 mmol/L diethylaminobenzaldehyde (DEAB), a specific ALDH inhibitor. In order to sort out non-viable cells, each sample received 4 μg/ml of Hoechst 33258 (Molecular Probes, Invitrogen). Cells were filtered through […] and kept on ice until analysis. Samples were analyzed by using a Becton Dickinson LSR II with 355 nm, 488 nm, and 633 nm lasers. (Becton Dickinson Immunocytometry System, INC., Mountain View, Calif.). The ALDH positive cells of 100,000 cells were determined by using the sorting gate established with DEAB negative control and Hochest viability control. The ALDH positive cells were represented by percentage of total 100,000 cell events.

Structure (SMILES) | change in MitoSOX oxidation, in words [1] | percentage of ALDH positive cell population [2] [%] | ALDH positive cell population decreased to (relative to control) [2] | effect on ALDH positive cell population, in words ([2]; 100 μM BSO 24 h) | increase in MitoSOX red oxidation relative to control ([1]; 1 μM DTPP, 100 μM BSO 24 h, 500 nM AUR 15 min) [fold]
CC[PH](CC)(CC)[Au][S][C@@H]1O[C@H](COC(C)=O)[C@@H](OC(C)=O)[C@H](OC(C)=O)[C@H]1OC(C)=O [AUR, S-triethylphosphinegold(I)-2,3,4,6-tetra-O-acetyl-1-thio-β-D-glucopyranoside] | did not exhibit any change in MitoSOX oxidation | 1.11 | around 50% |  | 
CCCCS(=N)(=O)CCC(N)C(=O)O [BSO, L-buthionine-[S,R]-sulfoximine, reference compound] | did not exhibit any change in MitoSOX oxidation |  |  | not able to decrease the ALDH positive cell population | 
CCCCCCCCCC[P+](c1ccccc1)(c1ccccc1)c1ccccc1 [DTPP, Decyl-Triphenylphosphonium] |  | 1.16 | around 50% |  | 12
